Results as given in patent EP4631940A1, “COMPOUND TARGETING PAN-KRAS PROTEIN DEGRADATION AGENT AND USE THEREOF” (Betta Pharmaceuticals Co., Ltd., priority 2022, dated 2024).
Where two headings read alike, the source gives them in different places.

Columns and labels:
SW620 = test: Cell proliferation experiment (CellTiter-Glo); assay type: cell-based; details: read-out: IC50(nM) SW620
[1] = PK study in Beagle dogs (plasma); assay type: in vivo; details: IV 1 mg/kg; for AUC(0-t) / C0 / half-life: dog
Description: Example 10 PK Study of Compound 135 in Beagle Dogs
Compound 135 was mixed with the vehicle (10% DMSO / 5% Solutol HS 15 / 85% saline), vortexed, and sonicated to prepare a clear solution at 0.5 mg/mL. Beagle dogs weighing approximately 10 kg (equal number of males and females, non-fasted) were intravenously administered the compound. Plasma was collected at specified time points. Drug concentration was analyzed by LC-MS/MS, and pharmacokinetic parameters were calculated using Phoenix WinNonlin software (Pharsight Corporation, USA). Table 13 Beagle Dog PK Data for Intravenous Compound Monotherapy

in vitro [2] = details: rat, microsomes
[3] = PK study in ICR mice (plasma); assay type: in vivo; details: Female ICR mice, IV 1 mg/kg; for AUC(0-t) / C0 / half-life: mouse
Description: Example 9 PK Study of Compound in ICR Mice (plasma)
The compound was mixed with the vehicle (10% DMSO / 5% Solutol HS 15 / 85% saline), vortexed, and sonicated to prepare a clear solution at 0.2 mg/mL. Female ICR mice aged 6 to 7 weeks (non-fasted) were intravenously administered the compound. Plasma was collected at specified time points. Drug concentration was analyzed by LC-MS/MS, and pharmacokinetic parameters were calculated using Phoenix WinNonlin software (Pharsight Corporation, USA). Table 12 Mouse PK Data for Intravenous Compound Monotherapy

PK-59 cells = test: Anti-tumor effects in a human pancreatic cancer xenograft model carrying KRAS^G12D mutation; assay type: in vivo, BALB/c Nude Crlj mice; details: PK-59 xenograft; for TGI After 4 Weeks of Administration (%): tail vein
in vitro [4] = details: mouse, microsomes
PK59 = test: Cell proliferation experiment (CellTiter-Glo); assay type: cell-based; details: PK-59; PK59, KRAS mutation type G12D; 96 h incubation
in vitro [5] = details: human, microsomes
AGS = test: Cell proliferation experiment (CellTiter-Glo); assay type: cell-based; details: read-out: IC50(nM) AGS
H358 = test: Cell proliferation experiment (CellTiter-Glo); assay type: cell-based; details: Homo sapiens, NCI-H358; H358, KRAS mutation type G12C; 96 h incubation
H1975 = test: Cell proliferation experiment (CellTiter-Glo); assay type: cell-based; details: Homo sapiens, NCI-H1975; H1975, KRAS WT; 96 h incubation
in vitro [6] = details: dog, microsomes
KRAS G12D [7] = target: T1, KRAS G12D (Homo sapiens, UniProt P01116, G12D); test: cell-based; details: AGS
KRAS G12D [8] = target: T1, KRAS G12D
HCT116 = test: Cell proliferation experiment (CellTiter-Glo); assay type: cell-based; details: Homo sapiens, HCT-116; HCT116, KRAS mutation type G13D; 96 h incubation
KRAS G13D = target: T2, KRAS G13D (Homo sapiens, UniProt P01116, G13D); test: Western blot study of KRAS degradation in HCT116 cells; assay type: cell-based; details: 3 h incubation
T2 construct: endogenous in cells; host or cells: HCT116

KRAS G12D [9] = target: T1, KRAS G12D; test: Western blot study of KRAS degradation in AGS cells; assay type: cell-based; design: endogenous in cells; host or cells: AGS; details: 3 h incubation
KRAS G12V = target: T3, KRAS G12V (Homo sapiens, UniProt P01116, G12V); test: Western blot study of KRAS degradation in SW620 cells; assay type: cell-based; details: 3 h incubation
T3 construct: endogenous in cells; host or cells: SW620

[10] = Metabolic stability in liver microsomes (NADPH); details: Mouse; 0.5 mg/mL liver microsomes, NADPH, 37°C
[11] = Metabolic stability in liver microsomes (NADPH); details: Rat; 0.5 mg/mL liver microsomes, NADPH, 37°C
[12] = Metabolic stability in liver microsomes (NADPH); details: Human; 0.5 mg/mL liver microsomes, NADPH, 37°C
[13] = PK study in ICR mice (whole blood); assay type: in vivo; details: Female ICR mice, IV 1 mg/kg
Description: Example 8 PK Study of Compound in ICR Mice (whole blood)
The compound was mixed with the vehicle (10% DMSO / 5% Solutol HS 15 / 85% saline), vortexed, and sonicated to prepare a clear solution at 0.2 mg/mL. Female ICR mice aged 6 to 7 weeks (non-fasted) were intravenously administered the compound. Whole blood was collected at specified time points. Drug concentration was analyzed by LC-MS/MS, and pharmacokinetic parameters were calculated using Phoenix WinNonlin software (Pharsight Corporation, USA). Table 11 Mouse PK Data for Intravenous Compound Monotherapy

[14] = Metabolic stability in liver microsomes (NADPH); details: Dog; 0.5 mg/mL liver microsomes, NADPH, 37°C

T1 sequence (P01116 1-188 isoform P01116-2 G12D): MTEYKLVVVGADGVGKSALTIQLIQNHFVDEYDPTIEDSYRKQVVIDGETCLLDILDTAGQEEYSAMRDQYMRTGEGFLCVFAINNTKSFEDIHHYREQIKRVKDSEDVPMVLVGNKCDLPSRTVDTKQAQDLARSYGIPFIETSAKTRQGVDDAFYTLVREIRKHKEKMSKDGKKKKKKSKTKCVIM
T2 sequence (P01116 1-188 isoform P01116-2 G13D): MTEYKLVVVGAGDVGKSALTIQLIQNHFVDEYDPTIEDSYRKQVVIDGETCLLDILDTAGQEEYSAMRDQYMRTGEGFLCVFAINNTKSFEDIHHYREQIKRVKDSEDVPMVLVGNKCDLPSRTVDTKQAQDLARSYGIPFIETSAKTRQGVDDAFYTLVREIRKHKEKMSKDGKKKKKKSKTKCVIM
T3 sequence (P01116 1-188 isoform P01116-2 G12V): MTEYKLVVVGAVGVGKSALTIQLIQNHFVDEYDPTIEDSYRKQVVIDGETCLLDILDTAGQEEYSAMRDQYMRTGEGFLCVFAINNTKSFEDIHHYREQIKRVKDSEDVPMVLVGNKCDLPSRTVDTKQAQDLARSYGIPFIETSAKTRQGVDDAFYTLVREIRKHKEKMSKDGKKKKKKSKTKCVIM

| SMILES | IC50 (SW620; Homo sapiens, SW-620, 96 h) [nM] | Cl_obs [1] [mL/min/kg] | Vss_obs [1] [L/kg] | AUC(0-t) [1] [ng·h/mL] | C0 [1] [ng/mL] | microsomal CLint (in vitro [2]) [µL/min/mg] | Cl_obs [3] [mL/min/kg] | Vss_obs [3] [L/kg] | AUC(0-t) [3] [ng·h/mL] | C0 [3] [ng/mL] | half-life [3] [h] | microsomal CLint (in vitro [4]) [µL/min/mg] | IC50 (PK59) [nM] | microsomal CLint (in vitro [5]) [µL/min/mg] | IC50 (AGS; Homo sapiens, AGS, 96 h) [nM] | IC50 (H1975) [nM] | microsomal CLint (in vitro [6]) [µL/min/mg] | Dmax (KRAS G12D [7]) [%] | DC50 (KRAS G12D [8]) [nM] | IC50 (HCT116) [nM] | further results |
| --- | --- | --- | --- | --- | --- | --- | --- | --- | --- | --- | --- | --- | --- | --- | --- | --- | --- | --- | --- | --- | --- |
| CCc1c(F)ccc2cc(O)cc(-c3ncc4c(N5CCC[C@@](C)(O)C5)nc(OCC5(CN6CCC(Oc7ccc(-c8cn([C@H](C(=O)N9C[C@H](O)C[C@H]9C(=O)N[C@@H](C)c9ccc(-c%10scnc%10C)cc9)C(C)C)nn8)cn7)CC6)CC5)nc4c3F)c12 [Compound 135] | 39 | 5.74 | 2.23 | 2780 | 11000 | 1.5 | 5.80 | 1.61 | 2750 | 5840 | 6.92 | 13.2 | 14.7 | 11.3 | 5.2 | > 10000 | 26.9 | 95 | 14 | 33 | half-life [1]: 21.4 h; TGI After 4 Weeks of Administration (%) (PK-59 cells; 1 mg/kg, QW): 70%; TGI After 4 Weeks of Administration (%) (PK-59 cells; 3 mg/kg, QW): 92%; TGI After 4 Weeks of Administration (%) (PK-59 cells; 10 mg/kg, QW): 106%; TGI After 4 Weeks of Administration (%) (PK-59 cells; 20 mg/kg, Q2W): 101%; TGI at 20 mg/kg once every two weeks versus 10 mg/kg once weekly (PK-59 cells; 4 weeks of administration): comparable TGI; IC50 (H358): 7.3 nM |
| CCc1c(F)ccc2cc(O)cc(-c3ncc4c(N5CCC[C@@](C)(O)C5)nc(OCC5(CN6CCC(Oc7cnc(-c8cn([C@H](C(=O)N9C[C@H](O)C[C@H]9C(=O)N[C@@H](C)c9ccc(-c%10scnc%10C)cc9)C(C)C)nn8)cn7)CC6)CC5)nc4c3F)c12 [Compound 144] | 8.4 | 6.19 | 3.46 | 2520 | 9890 | 6.2 | 5.81 | 1.54 | 2730 | 5530 | 9.34 | 10.9 | 4.4 | 18.8 | 3 | > 10000 | 7.4 | 95 | 1.1 | 13 | half-life [1]: 20.5 h; TGI After 4 Weeks of Administration (%) (PK-59 cells; 1 mg/kg, QW): 82%; TGI After 4 Weeks of Administration (%) (PK-59 cells; 3 mg/kg, QW): 93%; TGI After 4 Weeks of Administration (%) (PK-59 cells; 10 mg/kg, QW): 113%; KRAS G13D protein degradation (Western blot, Fig. 5) (KRAS G13D): effectively degraded; IC50 (H358): 5 nM; KRAS G12D protein degradation (Western blot, Fig. 5) (KRAS G12D [9]): effectively degraded; KRAS G12V protein degradation (Western blot, Fig. 5) (KRAS G12V): effectively degraded |
| CCc1c(F)ccc2cc(O)cc(-c3ncc4c(N5CCC[C@@](C)(O)C5)nc(OCC5(CN6CCC7(CC6)CN(c6ccc(-c8cn([C@H](C(=O)N9C[C@H](O)C[C@H]9C(=O)N[C@@H](C)c9ccc(-c%10scnc%10C)cc9)C(C)C)nn8)cn6)C7)CC5)nc4c3F)c12 [Compound 118] | 26 | – | – | – | – | 3.4 | – | – | – | – | – | 11.4 | 12.2 | 21.3 | 13 | > 10000 | 17.2 | 95 | 11 | 37 | – |
| CCc1c(F)ccc2cc(O)cc(-c3ncc4c(N5CCC[C@@](C)(O)C5)nc(OCC5(CN6CCC7(CC6)CC(c6cn([C@H](C(=O)N8C[C@H](O)C[C@H]8C(=O)N[C@@H](C)c8ccc(-c9scnc9C)cc8)C(C)C)nn6)C7)CC5)nc4c3F)c12 [Compound 73, (2S,4R)-1-((S)-2-(4-(7-((1-((7-(8-ethyl-7-fluoro-3-hydroxynaphthalen-1-yl)-8-fluoro-4-(((R)-3-hydroxy-3-methylpiperidin-1-yl)pyrido[4,3-d]pyrimidin-2-yl)oxy)methyl)cyclopropyl)methyl)-7-azaspiro[3.5]nonan-2-yl)-1H-1,2,3-triazol-1-yl)-3-methylbutanoyl)-4-hydroxy-N-((S)-1-(4-(4-methylthiazol-5-yl)phenyl)ethyl)pyrrolidine-2-carboxamide] | – | – | – | – | – | – | – | – | – | – | – | – | – | – | – | – | – | – | 17 | – | IC50 (SW620): 81 nM; The in vitro intrinsic clearance in liver microsomes (CLint, in vitro, µL/min/mg protein) Mouse [10]: 7.1 µL/min/mg protein; IC50 (AGS): 22 nM; The in vitro intrinsic clearance in liver microsomes (CLint, in vitro, µL/min/mg protein) Rat [11]: 9.8 µL/min/mg protein; The in vitro intrinsic clearance in liver microsomes (CLint, in vitro, µL/min/mg protein) Human [12]: 13.8 µL/min/mg protein; AUClast [13]: 2051 ng·h/mL; C0 [13]: 3008 ng/mL; t1/2 [13]: 5.07 h; Cl_obs ([13]; 1 mg/kg): 7.97 mL/min/kg; Vss_obs ([13]; 1 mg/kg): 1.91 L/kg; Dmax (%) (KRAS G12D [8]): 95%; The in vitro intrinsic clearance in liver microsomes (CLint, in vitro, µL/min/mg protein) Dog [14]: 18.9 µL/min/mg protein |
| CCc1c(F)ccc2cc(O)cc(-c3ncc4c(N5CCC[C@@](C)(O)C5)nc(OCC5(CN6CCN(c7ccc(-c8cn([C@H](C(=O)N9C[C@H](O)C[C@H]9C(=O)N[C@@H](C)c9ccc(-c%10scnc%10C)cc9)C(C)C)nn8)cn7)CC6)CC5)nc4c3F)c12 [Compound 142] | – | – | – | – | – | – | 7.32 | 0.854 | 2300 | 9460 | 4.1 | 17.7 | – | 11.1 | 10 | – | 14.2 | 95 | 6.3 | – | The in vitro intrinsic clearance in liver microsomes (CLint, in vitro, µL/min/mg protein) Rat: 0.0 µL/min/mg protein |
